Active and inactive are the calls of the source. The rule behind the calls is not given here.

The term IC50 denotes the point on the concentration scale where inhibition reaches its midpoint.

The target in assay [1] is Gamma-secretase. Kind of assay: Inhibition of human gamma secretase assessed as effect on C100Flag substrate cleavage. Format: protein-complex assay.
Assay [2] addresses Presenilin-1 (Homo sapiens) (UniProt P49768). Briefly: Binding affinity to presenilin-1 in UV irradiated human HeLa cells assessed as enzyme photolabeling at 10 uM in presence of 2 uM L-685,458 by SDS-PAGE based photocross linking study. Format: cell-based.
Assay [3] shares this target. Kind of assay: Binding affinity to presenilin-1 in UV irradiated human HeLa cells assessed as enzyme photolabeling at 10 uM by SDS-PAGE based photocross linking study. The format is cell-based.

For `COC(=O)[C@H](Cc1ccccc1)NC(=O)[C@H](CC(C)C)NC(=O)[C@H](Cc1ccccc1)C[C@@H](O)[C@H](Cc1ccc(C(=O)c2ccccc2)cc1)NC(=O)OC(C)(C)C`, in assay [1], the IC50 came out at 0.7 nM.

Turning to `CC(C)C[C@H](NC(=O)[C@H](Cc1ccccc1)C[C@@H](O)[C@H](Cc1ccc(C(=O)c2ccccc2)cc1)NC(=O)OC(C)(C)C)C(=O)N[C@@H](Cc1ccccc1)C(=O)NCCCCCNC(=O)CCCCC1SC[C@H]2NC(=O)N[C@@H]12` (some centres undefined), the outcome in assay [2] was inactive. Besides, the IC50 in assay [1] came out at 0.6 nM. Also, the outcome in assay [3] was Active.

The values above are taken from ChEMBL document CHEMBL1141031, “Stereo-controlled synthesis of novel photoreactive gamma-secretase inhibitors” (Bioorg Med Chem Lett, 2009).
